Active and inactive are the calls of the source. No rule for the calls is given here.
System: GENE-TOX genotoxicity assays, various organisms and cells
Assay: GENE-TOX mutagenicity studies
Conditions: for call: Assay Type: In vivo carcinogenicity studies
[1] = Species/Cell Type: Human, Assay Type: Sister-chromatid exchange (SCE) in vitro, Assay Code: SC1+, Evaluation Type: Evaluation B (Post-1980)
[2] = Species/Cell Type: Mammalian polychromatic erythrocytes, Assay Type: Micronucleus test, chromosome aberrations, Assay Code: MNT+U, Dose Response: Unconfirmed positive response, Evaluation Type: Evaluation B (Post-1980)
[3] = Species/Cell Type: Salmonella typhimurium (one or more of the five standard strains: TA98, TA100, TA1535, TA1537, and TA1538), Assay Type: Histidine reverse gene mutation, Ames assay, Assay Code: SAL+*, Activation: With metabolic activation, Evaluation Type: Evaluation A (Pre-1980)
[4] = Species/Cell Type: Nonhuman, Assay Code: CCG+L, Evaluation Type: Evaluation A (Pre-1980)
[5] = Species/Cell Type: Nonhuman, Assay Type: Sister-chromatid exchange (SCE) in vitro, Assay Code: SC2+D, Dose Response: With dose response, Evaluation Type: Evaluation B (Post-1980)
[6] = Species/Cell Type: Salmonella typhimurium (one or more of the five standard strains: TA98, TA100, TA1535, TA1537, and TA1538), Assay Type: Histidine reverse gene mutation, Ames assay, Assay Code: SALT, Evaluation Type: Evaluation A (Pre-1980)
[7] = Species/Cell Type: Nonhuman, Assay Code: CCG+, Evaluation Type: Evaluation A (Pre-1980)

For `Oc1ccccc1`, the mutagenic call (Species/Cell Type: Human lymphocytes, Assay Type: Sister-chromatid exchange (SCE) in vitro, Assay Code: SCL+, Evaluation Type: Evaluation B (Post-1980)) was “active; positive”, the mutagenic call [1] was “active; positive” and the mutagenic call (Species/Cell Type: Mammalian polychromatic erythrocytes, Assay Type: Micronucleus test, chromosome aberrations, Assay Code: MNTT, Evaluation Type: Evaluation B (Post-1980)) was “no conclusion”. For the same compound, the mutagenic call (Species/Cell Type: Neurospora crassa, Assay Type: Reverse gene mutation, Assay Code: NER-, Evaluation Type: Evaluation A (Pre-1980)) was “inactive; negative”.
For `C=CC(=O)OC`, the mutagenic call [2] was “active; positive”.
For `CC(C)(C#N)Nc1nc(Cl)nc(NC2CC2)n1`, the mutagenic call (Species/Cell Type: Zea mays (corn), Assay Type: Gene mutation, Assay Code: ZEM-, Evaluation Type: Evaluation A (Pre-1980)) was “inactive; negative”.
In the case of `Nc1cccc2cc3ccccc3cc12`, the mutagenic call (Species/Cell Type: Escherichia coli polA (W3119 vs P3478), Assay Type: Rec-assay, DNA effects (bacterial DNA repair), Assay Code: RE1T, Evaluation Type: Evaluation A (Pre-1980)) is reported as “no conclusion”, the mutagenic call (Species/Cell Type: Fischer rat embryo (RLV/1706) cells, Assay Type: Cell transformation, viral enhanced, Assay Code: CTR-, Evaluation Type: Evaluation A (Pre-1980)) is reported as “inactive; negative” and the mutagenic call (Species/Cell Type: Saccharomyces cerevisiae, Assay Type: Mitotic recombination or gene conversion, Assay Code: YEH+/-*, Activation: With metabolic activation, Evaluation Type: Evaluation A (Pre-1980)) is reported as “inactive; positive without activation, negative with activation”. For the same compound, the mutagenic call [3] was “active; positive”, the mutagenic call (Species/Cell Type: Salmonella typhimurium, Assay Type: Forward and reverse gene mutation, host-mediated assay, Assay Code: HMA-, Evaluation Type: Evaluation A (Pre-1980)) was “inactive; negative” and the mutagenic call (Species/Cell Type: Syrian hamster embryo (SHE) cells, Assay Type: Cell transformation, clonal assay, Assay Code: CTC-, Evaluation Type: Evaluation A (Pre-1980)) was “inactive; negative”.
With `OCCO` the mutagenic call (Species/Cell Type: Drosophila melanogaster, Assay Type: Aneuploidy, sex chromosome gain, chromosome aberrations, Assay Code: DAGT, Evaluation Type: Evaluation A (Pre-1980)) was “no conclusion”, the mutagenic call (Species/Cell Type: Drosophila melanogaster, Assay Type: Aneuploidy, whole sex chromosome loss, chromosome aberrations, Assay Code: DACT, Evaluation Type: Evaluation A (Pre-1980)) was “no conclusion” and the mutagenic call (Species/Cell Type: Neurospora crassa, Assay Type: Aneuploidy, chromosome aberrations, Assay Code: NEN-, Evaluation Type: Evaluation A (Pre-1980)) was “inactive; negative”. For the same compound, the mutagenic call (Species/Cell Type: Salmonella typhimurium (one or more of the five standard strains: TA98, TA100, TA1535, TA1537, and TA1538), Assay Type: Histidine reverse gene mutation, Ames assay, Assay Code: SAL-, Evaluation Type: Evaluation A (Pre-1980)) was “inactive; negative” and the mutagenic call (Species/Cell Type: Syrian hamster embryo (SA7/SHE) cells, Assay Type: Cell transformation, viral enhanced, Assay Code: CT7-, Evaluation Type: Evaluation A (Pre-1980)) was “inactive; negative”.
In the case of `C1=CC2OC2c2cc3ccc4cccc5ccc(c21)c3c45` (stereo not given), the mutagenic call (Species/Cell Type: Chinese hamster lung (V79) cells, Assay Type: Forward gene mutation at the HPRT or ouabain locus, Assay Code: V79-, Evaluation Type: Evaluation A (Pre-1980)) is reported as “inactive; negative”, the call [4] is reported as “active; positive” and the mutagenic call [5] is reported as “active; positive”. The mutagenic call (Species/Cell Type: Salmonella typhimurium (one or more of the five standard strains: TA98, TA100, TA1535, TA1537, and TA1538), Assay Type: Histidine reverse gene mutation, Ames assay, Assay Code: SAL+, Evaluation Type: Evaluation A (Pre-1980)) was “active; positive”.
For `COC(=O)C1=CCCN(C)C1`, the mutagenic call [2] was “active; positive” and the mutagenic call (Species/Cell Type: Nonhuman, Assay Type: Sister-chromatid exchange (SCE) in vivo, Assay Code: SC3+, Evaluation Type: Evaluation B (Post-1980)) was “active; positive”.
With `COc1cc2c(c3c(C)cc4ccccc4c13)CCC2=O` the mutagenic call [3] was “active; positive”.
With `O=[N+]([O-])[O-].O=[N+]([O-])[O-].O=[N+]([O-])[O-].[Rh+3]` the mutagenic call (Species/Cell Type: Bacillus subtilis (H17 vs M45), Assay Type: Rec-assay, spot test, DNA effects (bacterial DNA repair), Assay Code: REW+, Evaluation Type: Evaluation A (Pre-1980)) was “active; positive”.
`Nc1c(O)ccc2ccccc12` was tested, and the mutagenic call (Species/Cell Type: Escherichia coli polA (W3119 vs P3478), Assay Type: Rec-assay, DNA effects (bacterial DNA repair), Assay Code: RE1+, Evaluation Type: Evaluation A (Pre-1980)) was “active; positive” and the mutagenic call [6] was “no conclusion”.
For `COP(=O)(Oc1cc(Cl)c(Br)cc1Cl)c1ccccc1` (stereo not given), the mutagenic call [5] was “active; positive”.
`Clc1cccc(C2CO2)c1` (stereo not given) was tested, and the mutagenic call (Species/Cell Type: Escherichia coli WP2 UVRA, Assay Type: Tryptophan reverse gene mutation, Assay Code: WPU+D, Dose Response: With dose response, Evaluation Type: Evaluation A (Pre-1980)) was “active; positive” and the mutagenic call [6] was “no conclusion”.
For `CN(N=O)c1ccccc1`, the mutagenic call (Species/Cell Type: Chinese hamster lung (V79) cells, Assay Type: Forward gene mutation at the HPRT or ouabain locus, Assay Code: V79-*, Activation: With metabolic activation, Evaluation Type: Evaluation A (Pre-1980)) was “inactive; negative” and the mutagenic call (Species/Cell Type: Vicia faba, Assay Type: Chromosome aberrations, Assay Code: VIC+, Evaluation Type: Evaluation A (Pre-1980)) was “active; positive”.
With `O=NN(CCCl)C(=O)NC1CCCCC1` the mutagenic call (Species/Cell Type: Chinese hamster lung (V79) cells, Assay Type: Forward gene mutation at the HPRT or ouabain locus, Assay Code: V79+, Evaluation Type: Evaluation A (Pre-1980)) was “active; positive”, the mutagenic call (Species/Cell Type: Chinese hamster ovary (CHO) cells, Assay Type: Forward gene mutation at the HPRT locus, Assay Code: CHO+, Evaluation Type: Evaluation B (Post-1980)) was “active; positive” and the mutagenic call (Species/Cell Type: Human lymphocytes, Assay Type: Sister-chromatid exchange (SCE) in vivo, Assay Code: SCY+, Evaluation Type: Evaluation B (Post-1980)) was “active; positive”. The call [7] was “active; positive”, the mutagenic call (Species/Cell Type: Nonhuman, Assay Type: Sister-chromatid exchange (SCE) in vitro, Assay Code: SC2+, Evaluation Type: Evaluation B (Post-1980)) was “active; positive” and the mutagenic call (Species/Cell Type: Rodents, Sex: Male, Assay Type: Dominant lethal test, Assay Code: DLT+D, Dose Response: With dose response, Evaluation Type: Evaluation A (Pre-1980)) was “active; positive”.
With `C1=CC[C@@H](c2cccnc2)NC1` the mutagenic call [5] was “active; positive”.
`NNC(=O)c1ccncc1` was tested, and the mutagenic call [1] was “active; positive”, the mutagenic call (Species/Cell Type: Mammalian germ cells, Sex: Male, Assay Type: Chromosome aberrations in vivo, Assay Code: CY9T, Evaluation Type: Evaluation A (Pre-1980)) was “no conclusion” and the mutagenic call (Species/Cell Type: Mammalian oocytes or early embryo, Assay Type: Chromosome aberrations in vivo, Assay Code: CYO-, Evaluation Type: Evaluation A (Pre-1980)) was “inactive; negative”. The mutagenic call (Species/Cell Type: Mouse, Sex: Female, Assay Type: Spot test, gene mutation, Assay Code: MSTT, Evaluation Type: Evaluation A (Pre-1980)) was “no conclusion”, the mutagenic call (Species/Cell Type: Mouse, Sex: Male, Assay Type: Sperm morphology, Assay Code: SPI-, Evaluation Type: Evaluation A (Pre-1980)) was “inactive; negative” and the call [4] was “active; positive”. For the same compound, the mutagenic call [5] was “active; positive”, the mutagenic call (Species/Cell Type: Nonhuman, Assay Type: Sister-chromatid exchange (SCE) in vivo, Assay Code: SC3T, Evaluation Type: Evaluation B (Post-1980)) was “no conclusion” and the mutagenic call (Species/Cell Type: Rabbit, Sex: Male, Assay Type: Sperm morphology, Assay Code: SPR-, Evaluation Type: Evaluation A (Pre-1980)) was “inactive; negative”. The mutagenic call (Species/Cell Type: Rodents, Sex: Male, Assay Type: Dominant lethal test, Assay Code: DLT-, Evaluation Type: Evaluation A (Pre-1980)) was “inactive; negative”, the mutagenic call (Species/Cell Type: Salmonella typhimurium, Assay Type: Forward and reverse gene mutation, body fluid assay, Assay Code: BFUT, Evaluation Type: Evaluation A (Pre-1980)) was “no conclusion” and the mutagenic call (Species/Cell Type: Salmonella typhimurium, Assay Type: Forward and reverse gene mutation, host-mediated assay, Assay Code: HMA+, Evaluation Type: Evaluation A (Pre-1980)) was “active; positive”.
`CC(COc1ccccc1)N(CCCl)Cc1ccccc1` (stereo not given) was tested, and the call [7] was “active; positive”.
In the case of `C=C[C@H]1CN2CC[C@H]1C[C@H]2[C@H](O)c1ccnc2ccc(OC)cc12`, the mutagenic call [2] is reported as “active; positive” and the mutagenic call (Species/Cell Type: Nonhuman, Assay Type: Sister-chromatid exchange (SCE) in vivo, Assay Code: SC3+D, Dose Response: With dose response, Evaluation Type: Evaluation B (Post-1980)) is reported as “active; positive”.
With `COC(=O)COc1ccc(Br)cc1CCl` (tested in a mixture with another compound) the mutagenic call (Species/Cell Type: Saccharomyces cerevisiae, Assay Type: Reverse gene mutation, Assay Code: YER+, Evaluation Type: Evaluation A (Pre-1980)) was “active; positive”.
